Data published in PubChem BioAssay AID504520 (The Scripps Research Institute Molecular Screening Center, 2011).
Active and inactive are the calls of the source. The rule behind the calls is not given here.

Assays:
Experiment in all cases: LYPLA1 inhibition and serine hydrolase selectivity, late-stage follow-up, fluorescence, gel-based ABPP, mouse proteome (AID 504520);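 note: soluble proteome from BW5147 murine T cells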
Conditions in all cases: FP-rhodamine fluorescence, stronger effect = higher value
LYPLA2 = system: LYPLA2
LYPLA1 = system: LYPLA1
[1] = molecular target: Platelet-activating factor acetylhydrolase 2, cytoplasmic (Mus musculus) (UniProt Q8VDG7)
ABHD11 = system: ABHD11
ESD = system: ESD

Sequence of Platelet-activating factor acetylhydrolase 2, cytoplasmic (Mus musculus) (Q8VDG7 whole entry, looked up): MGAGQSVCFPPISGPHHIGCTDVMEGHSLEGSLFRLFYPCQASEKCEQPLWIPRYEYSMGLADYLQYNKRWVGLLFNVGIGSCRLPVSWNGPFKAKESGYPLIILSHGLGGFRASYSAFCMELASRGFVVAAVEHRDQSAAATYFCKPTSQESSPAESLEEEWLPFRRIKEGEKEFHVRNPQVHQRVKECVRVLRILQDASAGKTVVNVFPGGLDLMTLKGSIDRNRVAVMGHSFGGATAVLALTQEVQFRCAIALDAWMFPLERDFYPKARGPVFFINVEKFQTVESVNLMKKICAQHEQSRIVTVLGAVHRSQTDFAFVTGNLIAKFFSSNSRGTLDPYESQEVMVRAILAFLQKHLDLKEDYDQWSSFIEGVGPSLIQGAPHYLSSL

| inhibition (LYPLA2; at 0.75 µM) | inhibition (LYPLA2; inhibition, at 0.03 µM) [%] | inhibition (LYPLA2; inhibition, at 0.15 µM) [%] | inhibition (LYPLA1; at 0.75 µM) | inhibition (LYPLA1; inhibition, at 0.03 µM) [%] | inhibition (LYPLA1; inhibition, at 0.15 µM) [%] | inhibition ([1]; PAFAH2, at 0.75 µM) | inhibition ([1]; PAFAH2, inhibition, at 0.03 µM) [%] | inhibition ([1]; PAFAH2, inhibition, at 0.15 µM) [%] | inhibition (ABHD11; at 0.75 µM) | inhibition (ABHD11; inhibition, at 0.03 µM) [%] | inhibition (ABHD11; inhibition, at 0.15 µM) [%] | inhibition (ESD; at 0.75 µM) | inhibition (ESD; inhibition, at 0.03 µM) [%] | inhibition (ESD; inhibition, at 0.15 µM) [%] | Structure (SMILES) |
| --- | --- | --- | --- | --- | --- | --- | --- | --- | --- | --- | --- | --- | --- | --- | --- |
| 0% (inactive) | 0 | 0 | 0% (inactive) | 0 | 0 | 25% (inactive) | 0 | 0 | 75% (inactive) | 0 | 0 | 0% (inactive) | 0 | 0 | CN(C(=O)n1ncc(C(O)(c2ccccc2)c2ccccc2)n1)c1ccccc1 |
| 0% (inactive) | 0 | 0 | 0% (inactive) | 0 | 0 | 25% (inactive) | 0 | 0 | 100% | 0 | 100 | 0% (inactive) | 0 | 0 | O=C(N(c1ccccc1)c1ccc2ccccc2c1)n1ncc(C(O)(c2ccccc2)c2ccccc2)n1 |
